Source: patent publication US20050032873A1, “3-Amino chroman and 2-amino tetralin derivatives” (Wyeth, priority 2003, published 2005)
Like-named read-outs stand apart in the source and are kept apart here.

Experiments:
[1] = biological target: T1, 5-HT1A receptor (Homo sapiens, UniProt P08908); experiment: 5-HT1A receptor affinity: displacement of [3H] 8-OH-DPAT; format: binding; parameters: expressed in transfected cells; conditions: displacement of [3H] 8-OH-DPAT; CHO cells stably transfected with human 5-HT1A receptors; read-out: 5-HT1A Receptor Affinity Ki
T1 sequence (P08908 1-422): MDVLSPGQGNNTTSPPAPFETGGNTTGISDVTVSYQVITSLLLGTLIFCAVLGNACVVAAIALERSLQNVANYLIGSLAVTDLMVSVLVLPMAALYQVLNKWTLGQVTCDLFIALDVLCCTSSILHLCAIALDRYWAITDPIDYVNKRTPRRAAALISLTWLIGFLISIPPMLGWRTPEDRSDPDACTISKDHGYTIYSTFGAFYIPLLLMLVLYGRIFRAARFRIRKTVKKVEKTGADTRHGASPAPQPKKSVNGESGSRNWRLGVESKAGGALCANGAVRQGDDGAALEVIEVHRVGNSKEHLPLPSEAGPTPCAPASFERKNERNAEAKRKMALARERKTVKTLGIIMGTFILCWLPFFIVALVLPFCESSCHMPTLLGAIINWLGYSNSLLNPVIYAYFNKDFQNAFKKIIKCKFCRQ

[2] = biological target: T2, serotonin transporter (Rattus norvegicus, UniProt P31652); experiment: 5-HT transporter affinity: displacement of 3H-paroxetine from male rat cortical membranes; format: binding; conditions: displacement of 3H-paroxetine; male rat cortical membranes; read-out: 5-HT Transporter Affinity Ki
T2 construct: displace ^3H-paroxetine from male rat cortical membranes; from tissue; host or cells: male rat cortical membranes

[3] = biological target: T1, 5-HT1A receptor; experiment: cAMP accumulation assay, 5-HT1A function; format: cell-based; conditions: for EC50: cells marked EC50 (agonist); for Emax / 5-HT1A Function cAMP (Emax): in brackets after EC50 or IC50; for Emax: read-out: 5-HT1A Function cAMP (Emax); for IC50: cells marked IC50 (antagonist), read-out: 5-HT1A Function cAMP IC50
[4] = biological target: T3, cloned human 5-HT1A receptors (Homo sapiens, UniProt P08908); experiment: 35S-GTPγS binding assay, 5-HT1A function; format: biochemical; conditions: for EC50: agonist potency; for IC50: antagonist potency, reversal of 8-OH-DPAT, read-out: 5-HT1A Function GTPγS IC50
T3 construct: expressed in transfected cells
T3 sequence (P08908 1-422): T1 sequence (P08908 1-422)
Excerpt: The agonist or antagonist activity at 5-HT1A receptors was established by using two different assays. […] Agonists produce an increase in binding whereas antagonists produce no increase but rather reverse the effects of the standard agonist 8-OH-DPAT. The test compound's maximum stimulatory effect is represented as the Emax, while its potency is defined by the EC50. The test compound's maximum inhibitory effect is represented as the Imax, while its potency is defined by the IC50. The second assay measured cAMP accumulation upon binding of the ligand to the 5-HT1A receptor. […] The test compound's maximum stimulatory or inhibitory effect is represented as the Emax while its potency is defined by either IC50 for an antagonist or EC50 for an agonist. [^3H]-8-OH-DPAT was used to determine maximum agonist or antagonist response in both functional assays.

[5] = maximum stimulatory effect, in brackets after EC50, read-out: 5-HT1A Function GTPγS (Emax)
[6] = maximum inhibitory effect, in brackets after IC50, read-out: 5-HT1A Function GTPγS (Imax)
[7] = maximum inhibitory effect, in brackets after IC50

T2 sequence (P31652 whole entry): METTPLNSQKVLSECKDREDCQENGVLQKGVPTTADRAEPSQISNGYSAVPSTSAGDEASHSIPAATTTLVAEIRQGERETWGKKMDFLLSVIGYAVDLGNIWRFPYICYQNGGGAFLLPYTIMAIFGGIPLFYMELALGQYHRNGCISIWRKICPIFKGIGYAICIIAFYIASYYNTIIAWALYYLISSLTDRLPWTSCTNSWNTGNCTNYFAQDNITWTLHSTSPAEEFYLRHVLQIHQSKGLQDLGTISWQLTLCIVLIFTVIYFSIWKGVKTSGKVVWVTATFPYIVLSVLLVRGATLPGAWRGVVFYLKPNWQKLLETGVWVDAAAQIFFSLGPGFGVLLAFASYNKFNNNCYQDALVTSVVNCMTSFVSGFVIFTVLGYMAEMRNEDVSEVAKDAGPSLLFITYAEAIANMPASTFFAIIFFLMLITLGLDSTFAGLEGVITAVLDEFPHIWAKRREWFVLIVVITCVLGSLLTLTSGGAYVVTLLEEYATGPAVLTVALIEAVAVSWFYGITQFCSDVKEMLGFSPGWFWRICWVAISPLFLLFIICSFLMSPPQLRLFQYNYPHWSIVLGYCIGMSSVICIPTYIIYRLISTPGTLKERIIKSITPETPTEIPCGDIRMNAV

SMILES | EC50 [3] [nM] | Emax [3] [%] | EC50 [4] [nM] | Emax [4, 5] [%] | Ki [1] [nM] | Ki [2] [nM] | IC50 [3] [nM] | IC50 [4] [nM] | Emax [4, 6] [%] | 5-HT1A Function cAMP (Emax) [3] [%] | 5-HT1A Function GTPγS (Imax) [4, 7] [%] | 5-HT1A Function GTPγS (Emax) ([4]; maximum stimulatory effect, in brackets after EC50) [%]
COc1cccc2c1CC(N(CCCc1c[nH]c3ccc(C#N)cc13)CC1CC1)CO2 (stereo not drawn) [Compound 45, 3-{3-[(cyclopropylmethyl)(5-methoxy-3,4-dihydro-2H-chromen-3-yl)amino]propyl}-1H-indole-5-carbonitrile] | 77.3 | 89.5 | 56 | 72 | 2.16 | 5.25 | – | – | – | – | – | –
CCCN(CCCc1c[nH]c2c(OC)cccc12)C1COc2c(F)ccc(C(N)=O)c2C1 (stereo not drawn) [Compound 100, 8-fluoro-3-[[3-(7-methoxy-1H-indol-3-yl)propyl](propyl)amino]chromane-5-carboxamide] | 61.5 | 87 | 67.6 | 100 | 3.85 | 141 | – | – | – | – | – | –
CCCN(CCc1c[nH]c2ccc(F)cc12)C1CCc2cccc(OC)c2C1 (stereo not drawn) [Compound 48, N-[2-(5-fluoro-1H-indol-3-yl)ethyl]-N-(8-methoxy-1,2,3,4-tetrahydronaphthalen-2-yl)-N-propylamine] | 35 | 89 | 24 | 93 | 5.98 | 6.5 | – | – | – | – | – | –
CCN(CCCCc1c[nH]c2ccc(F)cc12)C1COc2c(C(N)=O)ccc(F)c2C1 (stereo not drawn) [Compound 127, 3-{ethyl[4-(5-fluoro-1H-indol-3-yl)butyl]amino}-5-fluorochromane-8-carboxamide] | 781 | 81.5 | 1290 | 50 | 326 | 9.9 | – | – | – | – | – | –
COC(=O)c1ccc(F)c2c1CC(N(CCCc1c[nH]c3ccc(F)cc13)C1CCC1)CO2 (stereo not drawn) [Compound 55, Methyl 3-{cyclobutyl[3-(5-fluoro-1H-indol-3-yl)propyl]amino}-8-fluorochromane-5-carboxylate] | – | – | – | – | 73.8 | 161 | – | – | – | 0 | 62 | –
CC(CCc1c[nH]c2ccc(F)cc12)N(CC1CC1)C1COc2c(F)ccc(C(N)=O)c2C1 (single isomer, unassigned; (-)) [Compound 15a, (−)-3-{(cyclopropylmethyl)[3-(5-fluoro-1H-indol-3-yl)-1-methylpropyl]amino}-8-fluorochromane-5-carboxamide] | – | – | – | – | 1.88 | 10.2 | 72.7 | 333 | 100 | 0 | – | –
COC(=O)c1ccc(F)c2c1CC(NCCCc1c[nH]c3ccc(F)cc13)CO2 (stereo not drawn) [Compound 10, Methyl 8-fluoro-3-{[3-(5-fluoro-1H-indol-3-yl)propyl]amino}chromane-5-carboxylate] | 16.3 | 70.5 | 30.5 | 85 | 6.25 | 10.9 | – | – | – | – | – | –
N#Cc1ccc2[nH]cc(CCCN(C3CCC3)[C@H]3COc4c(F)ccc(C(N)=O)c4C3)c2c1 [Compound 97b, (3R)-3-[[3-(5-cyano-1H-indol-3-yl)propyl](cyclobutyl)amino]-8-fluorochromane-5-carboxamide] | – | 0 | – | – | 1.98 | 2.44 | 71 | 317 | 100 | – | – | –
NC(=O)c1ccc(F)c2c1C[C@@H](NCC1CCc3[nH]c4ccc(F)cc4c3C1)CO2 (single isomer, unassigned; (+)) [Compound 175b] | – | – | – | – | 31.4 | 47.6 | 4130 | 174 | – | 0 | 55 | –
CCCN(CCc1c[nH]c2ccc(F)cc12)C1COc2c(F)ccc(C(N)=O)c2C1 (stereo not drawn) [Compound 77, 8-fluoro-3-[[2-(5-fluoro-1H-indol-3-yl)ethyl](propyl)amino]chromane-5-carboxamide] | – | 0 | – | – | 18 | 60.5 | 68.3 | 2570 | 100 | – | – | –
CCCCN(CCCc1c[nH]c2ccc(F)cc12)C1COc2c(F)ccc(C(N)=O)c2C1 (stereo not drawn) [Compound 72, 3-{butyl[3-(5-fluoro-1H-indol-3-yl)propyl]amino}-8-fluorochromane-5-carboxamide] | – | 0 | – | – | 38.8 | 52.5 | – | 3250 | 43 | – | – | –
COc1cccc2c1CC(N(CCCc1c[nH]c3ccc(F)cc13)CC1CC1)CO2 (stereo not drawn) [Compound 37, N-(cyclopropylmethyl)-N-[3-(5-fluoro-1H-indol-3-yl)propyl]-N-(5-methoxy-3,4-dihydro-2H-chromen-3-yl)amine] | 14.1 | 91 | 146 | 88 | 1.68 | 4.3 | – | – | – | – | – | –
CCCN(CCCc1c[nH]c2ccc(F)cc12)C1COc2cccc(OC)c2C1 (stereo not drawn) [Compound 23, [3-(5-fluoro-1H-indol-3-yl)propyl]-N-(5-methoxy-chroman-3-yl)propylamine] | 39.3 | 80.5 | 99.5 | 100 | 15.9 | 9 | – | – | – | – | – | –
NC(=O)c1cccc2c1CC(N(CCCc1c[nH]c3ccc(F)cc13)C1CCC1)CO2 (single isomer, unassigned; (+)) [Compound 134b, (+)-3-{cyclobutyl[3-(5-fluoro-1H-indol-3-yl)propyl]amino}chromane-5-carboxamide] | 44.5 | – | 581 | – | 29.6 | 7.2 | – | – | – | 66.5 | – | 71
CCCN(CCCc1c[nH]c2ccc(F)cc12)C1COc2cccc(C(N)=O)c2C1 (stereo not drawn) [Compound 150, 3-[[3-(5-fluoro-1H-indol-3-yl)propyl](propyl)amino]chromane-5-carboxamide] | 1.23 | 100 | 13 | 74 | 0.93 | 18.6 | – | – | – | – | – | –
COc1cccc2c1CC(N(CCCc1cn(C)c3ccc(F)cc13)CC1CC1)CO2 (stereo not drawn) [Compound 38, N-(cyclopropylmethyl)-N-[3-(5-fluoro-1-methyl-1H-indol-3-yl)propyl]-N-(5-methoxy-3,4-dihydro-2H-chromen-3-yl)amine] | 8.84 | 97.5 | 25.8 | 90 | 0.15 | 29 | – | – | – | – | – | –
CCCN(C(C)CCc1c[nH]c2ccc(C#N)cc12)C1COc2c(F)ccc(C(N)=O)c2C1 (single isomer, unassigned) [Compound 13c, 3-[[3-(5-cyano-1H-indol-3-yl)-1-methylpropyl](propyl)amino]-8-fluoro-3,4-dihydro-2H-chromene-5-carboxamide] | – | – | – | – | 119 | 118 | 316 | 2520 | – | 0 | 92 | –
CCCN(CCCc1c[nH]c2c(F)cc(F)cc12)C1COc2c(C(N)=O)ccc(F)c2C1 (stereo not drawn) [Compound 129, 3-[[3-(5,7-difluoro-1H-indol-3-yl)propyl](propyl)amino]-5-fluorochromane-8-carboxamide] | 707 | 75.5 | 9330 | 100 | 170 | 6.8 | – | – | – | – | – | –
CCN(CCCc1c[nH]c2ccc(F)cc12)C1COc2cccc(OC)c2C1 (stereo not drawn) [Compound 31, N-ethyl-N-[3-(5-fluoro-1H-indol-3-yl)propyl]-5-methoxychroman-3-amine] | 26.3 | 96 | 53.5 | 99 | 2.33 | 2.2 | – | – | – | – | – | –
NC(=O)c1ccc(F)c2c1CC(NCCCc1c[nH]c3ccc(Cl)cc13)CO2 (stereo not drawn) [Compound 114, 3-{[3-(5-chloro-1H-indol-3-yl)propyl]amino}-8-fluorochromane-5-carboxamide] | 244 | 67.5 | 1320 | 64 | 97 | 69.5 | – | – | – | – | – | –

The next lines start with results.

EC50 [3] [nM] | Emax [3] [%] | EC50 [4] [nM] | Emax [4, 5] [%] | SMILES | Ki [1] [nM] | Ki [2] [nM] | IC50 [3] [nM] | IC50 [4] [nM] | Emax [4, 6] [%] | 5-HT1A Function cAMP (Emax) [3] [%] | 5-HT1A Function GTPγS (Imax) [4, 7] [%] | 5-HT1A Function GTPγS (Emax) ([4]; maximum stimulatory effect, in brackets after EC50) [%]
– | 0 | – | – | C[C@@H](CCN(C1CCC1)[C@@H]1COc2c(F)ccc(C(N)=O)c2C1)c1c[nH]c2ccc(F)cc12 [Compound 153b, (3S)-3-{cyclobutyl[(3S)-3-(5-fluoro-1H-indol-3-yl)butyl]amino}-8-fluorochromane-5-carboxamide] | 124 | 122 | 166 | 1450 | 64 | – | – | –
128 | 53 | 5000 | 60 | NC(=O)c1cccc2c1C[C@H](NCCCc1c[nH]c3ccc(F)cc13)CO2 [Compound 133a, (3S)-3-{[3-(5-fluoro-1H-indol-3-yl)propyl]amino}chromane-5-carboxamide] | 51.8 | 28.5 | – | – | – | – | – | –
